{
  "source": "patent US11330820B2",
  "about": "“Pesticidally active mixtures” (BASF Agrochemical Products B.V., priority 2016, dated 2022)",
  "type_in_all_cases": "in vivo",
  "key": {"[1]": {"tested_on": "vetch aphid (Megoura viciae)", "test": "Control of vetch aphid on broad bean leaf disks, contact or systemic (B.1)", "method": "For evaluating control of vetch aphid (Megoura viciae) through contact or systemic means the test unit consisted of 24-well-microtiter plates containing broad bean leaf disks. The compounds or mixtures were formulated using a solution containing 75% by weight water and 25% by weight DMSO. Different concentrations of formulated compounds or mixtures were sprayed onto the leaf disks at 2.5 μl, using a custom built micro atomizer, at two replications.\n(§1) For experimental mixtures in these tests identical volumes of both mixing partners at the desired concentrations respectively, were mixed together.\nAfter application, the leaf disks were air-dried and 5-8 adult aphids placed on the leaf disks inside the microtiter plate wells. The aphids were then allowed to suck on the treated leaf disks and incubated at 23+1° C., 50+5% RH for 5 days. Aphid mortality and fecundity was then visually assessed."}, "[2]": {"tested_on": "boll weevil (Anthonomus grandis)", "test": "Control of boll weevil, insect diet with eggs (B.3)", "method": "For evaluating control of boll weevil (Anthonomus grandis) the test unit consisted of 24-well-microtiter plates containing an insect diet and 20-30 A. grandis eggs.\n(§2) The compounds or mixtures were formulated using a solution containing 75% by weight water and 25% by weight DMSO. Different concentrations of formulated compounds or mixtures were sprayed onto the insect diet at 20 μl, using a custom built micro atomizer, at two replications. For experimental mixtures in these tests identical volumes of both mixing partners at the desired concentrations respectively, were mixed together.\nAfter application, microtiter plates were incubated at 23±1° C., 50±5% RH for 5 days. Egg and larval mortality was then visually assessed."}, "[3]": {"tested_on": "Greenhouse Whitefly (Trialeurodes vaporariorum)", "test": "Control of greenhouse whitefly, egg plant leaf disk with white fly eggs (B.5)", "method": "as §2, with “For evaluating control of Greenhouse Whitefly (Trialeurodes vaporariorum) the test unit consisted of 96-well-microtiter plates containing a leaf disk of egg plant leaf disk with white fly eggs. The” for “The”, “2.5” for “20”\nAfter application, microtiter plates were incubated at 23±1° C., 65±5% RH for 6 days. Mortality of hatched crawlers was then visually assessed."}, "[4]": {"tested_on": "green peach aphid (Myzus persicae)", "test": "Control of green peach aphid through systemic means, artificial diet under membrane (B.2)", "description": "For evaluating control of green peach aphid (Myzus persicae) through systemic means the test unit consisted of 96-well-microtiter plates containing liquid artificial diet under an artificial membrane.\nThe compounds or mixtures were formulated using a solution containing 75% by weight water and 25% by weight DMSO. Different concentrations of formulated compounds or mixtures were pipetted into the aphid diet, using a custom built pipetter, at two replications.\nFor experimental mixtures in these tests identical volumes of both mixing partners at the desired concentrations respectively were mixed together.\nAfter application, 5-8 adult aphids were placed on the artificial membrane inside the microtiter plate wells. The aphids were then allowed to suck on the treated aphid diet and incubated at 23±1° C., 50±5% RH for 3 days. Aphid mortality and fecundity was then visually assessed."}, "[5]": {"tested_on": "tobacco budworm (Heliothis virescens)", "test": "Control of tobacco budworm, insect diet with eggs (B.4)", "method": "For evaluating control of tobacco budworm (Heliothis virescens) the test unit consisted of 96-well-microtiter plates containing an insect diet and 15-25 H. virescens eggs.\nThe compounds or mixtures were formulated using a solution containing 75% by weight water and 25% by weight DMSO. Different concentrations of formulated compounds or mixtures were sprayed onto the insect diet at 10 μl, using a custom built micro atomizer, at two replications.\nas §1\nAfter application, microtiter plates were incubated at 28+1° C., 80+5% RH for 5 days. Egg and larval mortality was then visually assessed."}, "[6]": {"conditions": "0.8 ppm, aphid mortality and fecundity after 5 days"}},
  "note": "“And” between values parts separate entries of the source, which are not always exact repeats. Equal entries are not always repeated.",
  "data": [
    {"smiles": "Cn1nc(C(F)(F)C(F)(F)F)c(C(F)(F)F)c1C(=O)Nc1ccc(Cl)c(C(=O)NCc2ccccc2)c1", "note": "[II.1, N-[4-Chloro-3-[[(phenylmethyl)amino]carbonyl]phenyl]-1-methyl-3-(1,1,2,2,2-pentafluoroethyl)-4-(trifluoromethyl)-1H-pyrazole-5-carboxamide]", "values": [
      {"measurement": "Average Control %", "setting": "[1]; [6]", "value": 0, "unit": "%"}
    ]},
    {"smiles": "CCS(=O)(=O)c1cccnc1-c1nc2cc(C(F)(F)F)cnc2n1C", "note": "[II.3-1, 2-(3-ethylsulfonyl-2-pyridyl)-3-methyl-6-(trifluoromethyl)imidazo[4,5-b]pyridine]", "values": [
      {"measurement": "Average Control %", "setting": "[2]; 50 ppm, egg and larval mortality after 5 days", "value": 25, "unit": "%"},
      {"measurement": "Average Control %", "setting": "[1]; 10 ppm, after 5 days", "value": 50, "unit": "%"},
      {"measurement": "Average Control %", "setting": "[3]; 2 + 0 ppm, mortality of hatched crawlers after 6 days", "value": 25, "unit": "%"},
      {"measurement": "Average Control %", "setting": "[4]; 10 ppm, after 3 days", "value": 37.5, "unit": "%"}
    ]},
    {"smiles": "CCN1OC[C@@H](NC(=O)c2ccc(C3=NOC(c4cc(Cl)cc(Cl)c4)(C(F)(F)F)C3)cc2C)C1=O", "note": "(stereo partly drawn) [II.4-1, 4-[5-(3,5-dichlorophenyl)-5-(trifluoromethyl)-4H-isoxazol-3-yl]-N-[(4R)-2-ethyl-3-oxo-isoxazolidin-4-yl]-2-methyl-benzamide]", "values": [
      {"measurement": "Average Control %", "setting": "[4]; 2 ppm, aphid mortality and fecundity after 3 days", "value": 0, "unit": "%"},
      {"measurement": "Average Control %", "setting": "[5]; 0.08 ppm, egg and larval mortality after 5 days", "value": 0, "unit": "%"}
    ]},
    {"smiles": "CN(C(=O)c1ccccc1)c1cccc(C(=O)Nc2c(Br)cc(C(F)(C(F)(F)F)C(F)(F)F)cc2C(F)(F)F)c1F", "note": "[compound a), broflanilide]", "values": [
      {"measurement": "Average Control %", "setting": "[2]; 0.08 ppm, after 5 days", "value": 25, "unit": "%"},
      {"measurement": "Average Control %", "setting": "[1]; 0.08 ppm, after 5 days", "value": 0, "unit": "%"},
      {"measurement": "Average Control %", "setting": "[1]; [6]", "value": "50% and 25%"},
      {"measurement": "Average Control %", "setting": "[3]; 0 + 0.4 ppm, after 6 days", "value": 0, "unit": "%"},
      {"measurement": "Average Control %", "setting": "[4]; 0.08 ppm, after 3 days", "value": 0, "unit": "%"},
      {"measurement": "Average Control %", "setting": "[4]; 0.8 ppm, after 3 days", "value": 25, "unit": "%"},
      {"measurement": "Average Control %", "setting": "[5]; 0.8 ppm, after 5 days", "value": 0, "unit": "%"}
    ]}
  ]
}
